This note sets out measurements from patent US7053052B2, “Therapies involving mutated heat shock transcription factor” (priority 1997, dated 2006).

Entries after “also recorded” stand apart in the source; their conditions may differ.

Assay [1] relates to human hsp70B promoter-driven chloramphenicol acetyltransferase (CAT) gene. Nature of the assay: hsp70B-CAT reporter gene assay in HeLa-CAT cells. It counts as cell-based. The procedure: CAT assays were performed using the chromatographic assay of Gorman, C. M. et al., Mol. Cell. Biol., 2:1044–1051 (1982)). DNA replication was assessed by a standard ^3H-thymidine incorporation assay. In most experiments, including all western blot assays, standardization was based on protein content. All protein determinations were made using the Bradford method. In a few experiments involving sorted cells, standardization was based on cell numbers. All experiments were repeated at least twice, and, in most cases, each data point was derived from assays of 3–5 parallel samples.
To find out whether HSF1(−) could function as a negatively acting factor, HeLa-CAT cells containing integrated copies of an hsp70B-chloramphenicol acetyltransferase (CAT) gene were co-transfected with an HSF1(−) and an EFGP-expressing construct. […] To determine whether elevated Hsp levels induced by heat preconditioning are required for development of tolerance measured as an increased rate of recovery from heat-induced translational arrest, cultures co-transfected with EGFP- and HSF1(−)-expressing constructs or transfected with EGFP-expressing construct only (control cultures) were mildly heat-preconditioned (41° C./1 hour) and, 3 hours later, subjected to a 44° C./30 minutes (severe) heat shock. […] Rates of protein synthesis were assessed by pulse-labeling cells with ^3H-leucine. […]

Assay [2] relates to endogenous hsp genes in HeLa-CAT cells. Nature of the assay: Expression of endogenous hsps (anti-hsp western blot, 3H-leucine labeling/fluorography). It counts as cell-based, human. The procedure:
Cells were scraped of dishes and lysed in buffer C. Aliquots containing equal amounts of cell protein as well as prestained molecular weight markers were applied to 8.5% SDS-PAGE gels. Following electrophoresis, proteins were transferred to Immobilon-P Transfer Membranes (Millipore Corp., Bedford, Mass.), and membranes were blocked by incubation with TBS (25 mM Tris-HCl, pH 8.0, 0.136 M NaCl, 2.7 mM KCl) with 2% nonfat dry milk. Appropriate sections of membranes were incubated with anti-HSF1 polyclonal antibody (Baler, R. et al., Mol. Cell. Biol., 13:2486–2496 (1993)), anti-Hsp antibodies (all from StressGen Biotechnologies Corp., Victoria, B C) or anti-actin antibody (Amersham, Arlington Heights, Ill.). Following three washes with TBS, membranes were reblocked and incubated with second antibody (horseradish peroxidase-conjugated anti-mouse or anti-rabbit IgG (Amersham). After several washes in TBS, membranes were developed using the ECL Western Blot Detection Kit (Amersham).
To avoid the apparent problem with low transfection efficiency altogether, the transfection approach was substituted by an infection approach. The mutHSF cDNA (HSF1(+)) was inserted behind a cytomegalovirus promoter flanked by adenoviral sequences in plasmid vector AC CMV pLpA SR (+). Human 293 cells expressing the adenovirus E1A region genes were co-transfected with plasmid vector lacking an inserted foreign gene or plasmid vector containing mutHSF and plasmid JM17 containing the bulk of adenovirus sequences. By recombination of sequences on the two types of plasmids, adenoviral genomes were created that lacked the EIA region (replication-defective) but contained a cytomegalovirus promoter (control virus) or a cytomegalovirus promoter linked to the mutHSF gene and that were packaged into defective virus particles (mutHSF virus)(See Graham and Prevec, 1991, for a description of the methodology used to create the adenovirus vehicles). Viral plaques were isolated and expanded, and the viral genomes were analyzed by restriction enzyme digestion. Infections with viruses were performed at a multiplicity of infection (MOI) of about 5. Three groups of 50% confluent cultures of HeLa-CAT cells were set up. The first group was infected with mutHSF virus (Ade-HSF1(+)), the second group with control virus (Ade), and the third group received no virus. The three groups of cultures were then incubated for 15, 24 and 36 hours, respectively, and were subsequently harvested. Extracts were prepared as before.
Even synthesis of the typically less inducible hsps such as hsp73 (also known as hsc70) and hsp60 was enhanced. […] The hsp90 antibody used may have detected both the inducible and constitutive forms of hsp90, masking a more dramatic induction of the inducible form. […]
A general note: In western blotting, separated proteins are transferred to a membrane and probed.

Setting [3] is: 15, 24, 36 hours after infection.

On to human HSF1d202–316 [HSF1(+)], for which the “activation of hsp70B-CAT genes in the absence of stress” value in assay [1] (no heat shock, listed as mutHSF) is “equally as well as or better than endogenous HSF1 activated by a moderately severe heat shock; also recorded: strongly activated”. For the same substance, in assay [2] (setting [3]), the “Hsp90 levels (western blot)” value is reported as “clearly increased”; the “expression of hsp72 and hsp27 (western blot)” value is “drastically increased”; the “synthesis of hsp73 and hsp60 (western blot)” value is “enhanced”.
human HSF1d453–523 [HSF1(−)]: the “heat-induced hsp70B-CAT reporter expression” value in assay [1] (41° C./1 hour heat shock, FACS-isolated cells) is recorded as “severely inhibited”. In assay [2] (41° C./1 hour heat shock), the “heat-induced Hsp accumulation (anti-Hsp72 western blot)” value is listed as “greatly reduced”.
